Experiments:
Type in all cases: in vivo
beet [1] = assay: Test Example 5: effect on crop by foliage application, plastic box (symbol f); conditions: 320 g/ha, 3 weeks after application
In short: (§1)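 Box culture: sterile diluvial soil, seeds spot-sown, ~1.5 cm cover, raised under glass at 25–30° C.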

Alopecurus myosuroides = assay: Test Example 5: herbicidal effect by foliage application, plastic box (symbol J); conditions: 320 g/ha, 3 weeks after application
In short: (§2)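 Emulsion formulation, diluted with water to the intended rate, was applied uniformly to leaves by small sprayer. Recipients were 14-day greenhouse-grown seedlings (25° C. to 30° C.). Assessment followed at 3 weeks.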

rapeseed = assay: Test Example 5: effect on crop by foliage application, plastic box (symbol g); conditions: 320 g/ha, 3 weeks after application
In short: as §1

Avena fatua = assay: Test Example 5: herbicidal effect by foliage application, plastic box (symbol I); conditions: 320 g/ha, 3 weeks after application
In short: as §2

Digitaria ciliaris = assay: Test Example 5: herbicidal effect by foliage application, plastic box (symbol F); conditions: 320 g/ha, 3 weeks after application
In short: as §2

[2] = tested on: Echinochloa oryzacola Vasing.; assay: Test Example 1: herbicidal activity, application before weed generation in submerged conditions (symbol A); conditions: application herbicide amount 320 g/ha
In short: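 Steps: alluvial soil flooded to 4 cm; weed seeds sown together; rice seedlings (2.5 leaf) transplanted; diluted emulsion applied to water surface the same day as sowing; plants grown at 25–30 °C in greenhouse; herbicidal effect rated on a 0–5 scale at 3 weeks.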

Leptochloa chinensis = assay: Test Example 3: herbicidal effect by foliage application, Wagner pot (symbol D); conditions: application herbicide amount 320 g/ha
In short: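 Post-emergence, paddy-type test: seedlings 14 d old in shallow-flooded (0.1–0.5 cm) alluvial soil, 25–30 °C greenhouse. Emulsion diluted to target rate, sprayed on leaves. Read-out: visual effect on each species at 3 weeks, per set criteria.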

beet [3] = assay: Test Example 4: effect on crop by soil treatment (symbol f); conditions: application herbicide amount 320 g/ha
In short: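 Plants are raised in a greenhouse (25° C. to 30° C.) from spot-sown seed, which sits under about 1.5 cm of sterilized diluvial soil in a box shared with weed species.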

Monochoria vaginalis = assay: Test Example 2: herbicidal activity, application during weed generation in submerged conditions (symbol C); conditions: Table 23; application herbicide amount 320 g/ha; grade 0-5 by criteria of Test Example 1
In short: (§3)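 Steps: fill pots with alluvial soil; add water to 4 cm depth; co-sow the three weeds; grow at 25° C. to 30° C. under glass; at 1–2 leaves, dose the floodwater with diluted emulsion; rate damage visually after 3 weeks.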

Setaria viridis = assay: Test Example 4: herbicidal effect by soil treatment (symbol G); conditions: application herbicide amount 320 g/ha
In short: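 Seeds were sown in sterilized diluvial soil, covered with about 1.5 cm of soil, and the soil surface was sprayed with a water-diluted emulsion of the compound at a predetermined rate. Plants grew in a greenhouse at 25° C. to 30° C.; effects were scored visually 3 weeks after application.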

Scirpus juncoides = assay: Test Example 2: herbicidal activity, application during weed generation in submerged conditions (symbol B); conditions: Table 23; application herbicide amount 320 g/ha; grade 0-5 by criteria of Test Example 1
In short: as §3

SMILES: CON=C(C)CC1CC(OC(=O)C2(C)CC2(Cl)Cl)=C(c2c(C)cc(C)cc2C)C1=O (stereo not drawn) [1-036]
- f: beet, effect on crop grade (beet [1]): 3 (Herbicidal ratio of 40% or higher and lower than 70%)
- J: Alopecurus myosuroides, herbicidal effect grade (Alopecurus myosuroides): 5 (Herbicidal ratio of 90% or more (almost completely withered))
- g: rapeseed, effect on crop grade (rapeseed): 4 (Herbicidal ratio of 70% or higher and lower than 90%)
- I: Avena fatua, herbicidal effect grade (Avena fatua): 5 (Herbicidal ratio of 90% or more (almost completely withered))
- F: Digitaria ciliaris, herbicidal effect grade (Digitaria ciliaris): 5 (Herbicidal ratio of 90% or more (almost completely withered))
- Herbicidal effect grade, A: Echinochloa oryzacola Vasing. [2]: 5 (Herbicidal ratio of 90% or more (almost completely withered))
- herbicidal effect on D (Leptochloa chinensis), grade 0-5 (Leptochloa chinensis): 5 (Herbicidal ratio of 90% or more (almost completely withered))
- f (beet) effect on crop grade (beet [3]): 3 (Herbicidal ratio of 40% or higher and lower than 70%)
- Herbicidal effect grade, C: Monochoria vaginalis (Monochoria vaginalis): 2 (Herbicidal ratio of 20% or higher and lower than 40%)
- G (Setaria viridis) herbicidal effect grade (Setaria viridis): 5 (Herbicidal ratio of 90% or more (almost completely withered))
- Herbicidal effect grade, B: Scirpus juncoides (Scirpus juncoides): 4 (Herbicidal ratio of 70% or higher and lower than 90%)

SMILES: COCCOC1=C(c2c(C)cc(C)cc2C)C(=O)C(CC(C)=NOC)C1 (stereo not drawn) [1-037]
- f: beet, effect on crop grade (beet [1]): 0 (Herbicidal ratio of 5% or lower (almost no effect))
- J: Alopecurus myosuroides, herbicidal effect grade (Alopecurus myosuroides): 0 (Herbicidal ratio of 5% or lower (almost no effect))
- g: rapeseed, effect on crop grade (rapeseed): 0 (Herbicidal ratio of 5% or lower (almost no effect))
- I: Avena fatua, herbicidal effect grade (Avena fatua): 0 (Herbicidal ratio of 5% or lower (almost no effect))
- F: Digitaria ciliaris, herbicidal effect grade (Digitaria ciliaris): 0 (Herbicidal ratio of 5% or lower (almost no effect))
- Herbicidal effect grade, A: Echinochloa oryzacola Vasing. [2]: 0 (Herbicidal ratio of 5% or lower (almost no effect))
- herbicidal effect on D (Leptochloa chinensis), grade 0-5 (Leptochloa chinensis): 0 (Herbicidal ratio of 5% or lower (almost no effect))
- f (beet) effect on crop grade (beet [3]): 0 (Herbicidal ratio of 5% or lower (almost no effect))
- Herbicidal effect grade, C: Monochoria vaginalis (Monochoria vaginalis): 0 (Herbicidal ratio of 5% or lower (almost no effect))
- G (Setaria viridis) herbicidal effect grade (Setaria viridis): 0 (Herbicidal ratio of 5% or lower (almost no effect))
- Herbicidal effect grade, B: Scirpus juncoides (Scirpus juncoides): 0 (Herbicidal ratio of 5% or lower (almost no effect))

SMILES: CON=C(C)CC1CC(OC(=O)C(C)(C)F)=C(c2c(C)cc(C)cc2C)C1=O (stereo not drawn) [1-039]
- f: beet, effect on crop grade (beet [1]): 3 (Herbicidal ratio of 40% or higher and lower than 70%)
- J: Alopecurus myosuroides, herbicidal effect grade (Alopecurus myosuroides): 5 (Herbicidal ratio of 90% or more (almost completely withered))
- g: rapeseed, effect on crop grade (rapeseed): 4 (Herbicidal ratio of 70% or higher and lower than 90%)
- I: Avena fatua, herbicidal effect grade (Avena fatua): 5 (Herbicidal ratio of 90% or more (almost completely withered))
- F: Digitaria ciliaris, herbicidal effect grade (Digitaria ciliaris): 5 (Herbicidal ratio of 90% or more (almost completely withered))
- Herbicidal effect grade, A: Echinochloa oryzacola Vasing. [2]: 5 (Herbicidal ratio of 90% or more (almost completely withered))
- herbicidal effect on D (Leptochloa chinensis), grade 0-5 (Leptochloa chinensis): 5 (Herbicidal ratio of 90% or more (almost completely withered))
- f (beet) effect on crop grade (beet [3]): 3 (Herbicidal ratio of 40% or higher and lower than 70%)
- Herbicidal effect grade, C: Monochoria vaginalis (Monochoria vaginalis): 3 (Herbicidal ratio of 40% or higher and lower than 70%)
- G (Setaria viridis) herbicidal effect grade (Setaria viridis): 5 (Herbicidal ratio of 90% or more (almost completely withered))
- Herbicidal effect grade, B: Scirpus juncoides (Scirpus juncoides): 5 (Herbicidal ratio of 90% or more (almost completely withered))

SMILES: COCC(CC1CC(O)=C(c2c(C)cc(C)cc2C)C1=O)=NOC (stereo not drawn) [1-040]
- f: beet, effect on crop grade (beet [1]): 0 (Herbicidal ratio of 5% or lower (almost no effect))
- J: Alopecurus myosuroides, herbicidal effect grade (Alopecurus myosuroides): 5 (Herbicidal ratio of 90% or more (almost completely withered))
- g: rapeseed, effect on crop grade (rapeseed): 4 (Herbicidal ratio of 70% or higher and lower than 90%)
- I: Avena fatua, herbicidal effect grade (Avena fatua): 4 (Herbicidal ratio of 70% or higher and lower than 90%)
- F: Digitaria ciliaris, herbicidal effect grade (Digitaria ciliaris): 4 (Herbicidal ratio of 70% or higher and lower than 90%)
- Herbicidal effect grade, A: Echinochloa oryzacola Vasing. [2]: 3 (Herbicidal ratio of 40% or higher and lower than 70%)
- herbicidal effect on D (Leptochloa chinensis), grade 0-5 (Leptochloa chinensis): 4 (Herbicidal ratio of 70% or higher and lower than 90%)
- f (beet) effect on crop grade (beet [3]): 0 (Herbicidal ratio of 5% or lower (almost no effect))
- Herbicidal effect grade, C: Monochoria vaginalis (Monochoria vaginalis): 0 (Herbicidal ratio of 5% or lower (almost no effect))
- G (Setaria viridis) herbicidal effect grade (Setaria viridis): 4 (Herbicidal ratio of 70% or higher and lower than 90%)
- Herbicidal effect grade, B: Scirpus juncoides (Scirpus juncoides): 0 (Herbicidal ratio of 5% or lower (almost no effect))

SMILES: CON=C(C)CC1CC(OC(=O)C(C)Cl)=C(c2c(C)cc(C)cc2C)C1=O (stereo not drawn) [1-042]
- f: beet, effect on crop grade (beet [1]): 1 (Herbicidal ratio of 5% or higher and lower than 20%)
- J: Alopecurus myosuroides, herbicidal effect grade (Alopecurus myosuroides): 5 (Herbicidal ratio of 90% or more (almost completely withered))
- g: rapeseed, effect on crop grade (rapeseed): 4 (Herbicidal ratio of 70% or higher and lower than 90%)
- I: Avena fatua, herbicidal effect grade (Avena fatua): 5 (Herbicidal ratio of 90% or more (almost completely withered))
- F: Digitaria ciliaris, herbicidal effect grade (Digitaria ciliaris): 5 (Herbicidal ratio of 90% or more (almost completely withered))
- Herbicidal effect grade, A: Echinochloa oryzacola Vasing. [2]: 0 (Herbicidal ratio of 5% or lower (almost no effect))
- herbicidal effect on D (Leptochloa chinensis), grade 0-5 (Leptochloa chinensis): 5 (Herbicidal ratio of 90% or more (almost completely withered))
- f (beet) effect on crop grade (beet [3]): 0 (Herbicidal ratio of 5% or lower (almost no effect))
- Herbicidal effect grade, C: Monochoria vaginalis (Monochoria vaginalis): 3 (Herbicidal ratio of 40% or higher and lower than 70%)
- G (Setaria viridis) herbicidal effect grade (Setaria viridis): 5 (Herbicidal ratio of 90% or more (almost completely withered))
- Herbicidal effect grade, B: Scirpus juncoides (Scirpus juncoides): 4 (Herbicidal ratio of 70% or higher and lower than 90%)

SMILES: CON=C(C)CC1CC(OC(=O)COc2ccccc2)=C(c2c(C)cc(C)cc2C)C1=O (stereo not drawn) [1-043]
- f: beet, effect on crop grade (beet [1]): 3 (Herbicidal ratio of 40% or higher and lower than 70%)
- J: Alopecurus myosuroides, herbicidal effect grade (Alopecurus myosuroides): 5 (Herbicidal ratio of 90% or more (almost completely withered))
- g: rapeseed, effect on crop grade (rapeseed): 4 (Herbicidal ratio of 70% or higher and lower than 90%)
- I: Avena fatua, herbicidal effect grade (Avena fatua): 5 (Herbicidal ratio of 90% or more (almost completely withered))
- F: Digitaria ciliaris, herbicidal effect grade (Digitaria ciliaris): 5 (Herbicidal ratio of 90% or more (almost completely withered))
- Herbicidal effect grade, A: Echinochloa oryzacola Vasing. [2]: 5 (Herbicidal ratio of 90% or more (almost completely withered))
- herbicidal effect on D (Leptochloa chinensis), grade 0-5 (Leptochloa chinensis): 5 (Herbicidal ratio of 90% or more (almost completely withered))
- f (beet) effect on crop grade (beet [3]): 4 (Herbicidal ratio of 70% or higher and lower than 90%)
- Herbicidal effect grade, C: Monochoria vaginalis (Monochoria vaginalis): 3 (Herbicidal ratio of 40% or higher and lower than 70%)
- G (Setaria viridis) herbicidal effect grade (Setaria viridis): 5 (Herbicidal ratio of 90% or more (almost completely withered))
- Herbicidal effect grade, B: Scirpus juncoides (Scirpus juncoides): 5 (Herbicidal ratio of 90% or more (almost completely withered))

Reference: patent US11000033B2, “Ketone or oxime compound, and herbicide” (NISSAN CHEMICAL CORPORATION, priority 2014, dated 2021)
